From patent EP0076430A1, “Compositions having antimicrobial activity” (MEDEA RESEARCH S.r.l., priority 1981, dated 1983)
≈ marks a conversion by molar mass, not a printed value.

What was measured:
B. subtilis = experiment: Bactericide activity at different contact times; format: cell-based; parameters: key: + = growth; - = no growth; conditions: 100 p.p.m.
Method: (§1) Different bacterial species isolated from patients are employed.
(§2) Compounds AB5 and AB6 are dissolved in ethanol (ethyl alcohol 95°, C. Erba) and all the subsequent dilutions performed in distilled water. The chlorhexidine is diluted from the commercial product already dissolved in distilled water.
(§3) It is assessed through Dinatech apparatus with "Inoculum 96" head.
(§4) Chemical compounds at established concentra tions are placed in amount of 1 ml in the con tainers, the bacterial inoculum is then added in amount of 0.1 ml (24 hrs culture) and at pre-established times (3,5,10,30,60 and 120 mi nutes), through the head, the mixture compound/ disinfectant agent is transferred in solid medium (agar-heart-brain medium). After incubation at 35°C for 24 hours, the reading is carried out. The tests are repeated in presence of human serum at the concentration of 10%.

Staph. aureus [1] = experiment: Bactericide activity at different contact times; format: cell-based; parameters: key: + = growth; - = no growth; conditions: 100 p.p.m.
Method: as §1, §2, §3, §4

Salmonella sp. [2] = experiment: Bactericide activity at different contact times; format: cell-based; parameters: key: + = growth; - = no growth; conditions: 100 p.p.m.
Method: as §1, §2, §3, §4

Pseudomonas aeruginosa [3] = experiment: Bactericide activity at different contact times; format: cell-based; parameters: key to Bactericide action (growth / no growth) / Bactericide activity (growth / no growth), serum interference test: + = growth; - = no growth; conditions: 100 p.p.m.
Method: as §1, §2, §3, §4

Indole-positive Proteus [4] = experiment: Bactericide activity at different contact times; format: cell-based; parameters: key to Bactericide action (growth / no growth): + = growth; - = no growth; conditions: 100 p.p.m.
Method: as §1, §2, §3, §4

E. coli = experiment: Bactericide activity at different contact times; format: cell-based; parameters: key to Bactericide action (growth / no growth): + = growth; - = no growth; conditions: 100 p.p.m.
Method: as §1, §2, §3, §4

Serratia marcescens [5] = experiment: Bactericide activity at different contact times; format: cell-based; parameters: key to Bactericide action (growth / no growth): + = growth; - = no growth; conditions: 100 p.p.m.
Method: as §1, §2, §3, §4

[6] = Toxicity, LD50 by intraperitoneal route; conditions: mouse, in vivo, ip, mice
E.coli = experiment: Minimum inhibitory concentration (MIC), broth dilution; format: cell-based; conditions: Escherichia coli, 24 h
Method: as §1, §2
(§5) The broth dilution is employed to assess MIC values for all strains. Sterile microtiter plates with U bottom with 96 wells are employed. 0.1 Ml of liquid medium (tryptose Roche broth) are put in each well, the plates are kept at -20° and, before use, at room temperature.
(§6) The disinfectant agent is put in the wells of the row 2 at a concentration of 4000 mcg/ml (real 2000 mcg/ml) and then with a 100 µl micro- pipette dilutions are performed from row 2 to row 11.
(§7) The row 1 is the control of the medium and the row 12 is the control for the fertility of the medium itself.
(§8) After having performed the dilutions, 0.01 ml of a 24 hrs bacterial broth culture (previously diluted at 10^-4 for Gram-negative strains and 10-2 for Gram-positive ones) are placed in all wells, from the rows 2 to 12. After the inoculation, the plate is hermetical ly sealed with adhesive transparent band and an hole is done with a needle. The plates are kept at 35° for 24 hours and a macroscopic reading is carried out; in case of non uniform reading, taking place only for chlorhexidine, the cultures from the wells are plated on agar-heart-brain medium (Sclavo) through Dinatech apparatus (head "Inoculum 96") and the reading of the growth is carried out in the following 24 hours.

Indole-positive Proteus [7] = experiment: as above; format: cell-based; conditions: 24 h
Method: as §1, §2, §5, §6, §7, §8

Bacillaceae = experiment: as above; format: cell-based; conditions: 24 h; strain 1722
Method: as §1, §2, §5, §6, §7, §8

Staph. aureus [8] = experiment: as above; format: cell-based; conditions: Staphylococcus aureus, 24 h; strain 2672
Method: as §1, §2, §5, §6, §7, §8

Serratia marcescens [9] = experiment: as above; format: cell-based; conditions: 24 h, strain 1814
Method: as §1, §2, §5, §6, §7, §8

Enterobacter = experiment: as above; format: cell-based; conditions: 24 h, strain 2643
Method: as §1, §2, §5, §6, §7, §8

Salmonella sp. [10] = experiment: as above; format: cell-based; conditions: 24 h, strain 2482
Method: as §1, §2, §5, §6, §7, §8

Pseudomonas aeruginosa [11] = experiment: as above; format: cell-based; conditions: 24 h
Method: as §1, §2, §5, §6, §7, §8

## NC(=NCl)c1ccccc1 [AB5]
B. subtilis; contact time 3 min
  Bactericide action (growth / no growth): -
B. subtilis; contact time 5 min
  Bactericide action (growth / no growth): -
B. subtilis; contact time 10 min
  Bactericide action (growth / no growth): -
B. subtilis; contact time 30 min
  Bactericide action (growth / no growth): -
B. subtilis; contact time 60 min
  Bactericide action (growth / no growth): -
B. subtilis; contact time 120 min
  Bactericide action (growth / no growth): -
Staph. aureus [1]; contact time 3 min
  Bactericide action (growth / no growth): +
Staph. aureus [1]; contact time 5 min
  Bactericide action (growth / no growth): +
Staph. aureus [1]; contact time 10 min
  Bactericide action (growth / no growth): +
Staph. aureus [1]; contact time 30 min
  Bactericide action (growth / no growth): +
Staph. aureus [1]; contact time 60 min
  Bactericide action (growth / no growth): -
Staph. aureus [1]; contact time 120 min
  Bactericide action (growth / no growth): -
Salmonella sp. [2]; contact time 3 min
  Bactericide action (growth / no growth): +
Salmonella sp. [2]; contact time 5 min
  Bactericide action (growth / no growth): +
Salmonella sp. [2]; contact time 10 min
  Bactericide action (growth / no growth): -
Salmonella sp. [2]; contact time 30 min
  Bactericide action (growth / no growth): -
Salmonella sp. [2]; contact time 60 min
  Bactericide action (growth / no growth): -
Salmonella sp. [2]; contact time 120 min
  Bactericide action (growth / no growth): -
Pseudomonas aeruginosa [3]
  contact time for total bactericide activity: 60 to 120 min
Pseudomonas aeruginosa [3]; contact time 3 min
  Bactericide action (growth / no growth): +
Pseudomonas aeruginosa [3]; contact time 5 min
  Bactericide action (growth / no growth): +
Pseudomonas aeruginosa [3]; contact time 10 min
  Bactericide action (growth / no growth): +
Pseudomonas aeruginosa [3]; contact time 30 min
  Bactericide action (growth / no growth): +
Pseudomonas aeruginosa [3]; contact time 60 min
  Bactericide action (growth / no growth): +
Pseudomonas aeruginosa [3]; contact time 120 min
  Bactericide action (growth / no growth): -
Indole-positive Proteus [4]
  contact time for total bactericide activity: 60 to 120 min
Indole-positive Proteus [4]; contact time 3 min
  Bactericide action (growth / no growth): +
Indole-positive Proteus [4]; contact time 5 min
  Bactericide action (growth / no growth): +
Indole-positive Proteus [4]; contact time 10 min
  Bactericide action (growth / no growth): -
Indole-positive Proteus [4]; contact time 30 min
  Bactericide action (growth / no growth): -
Indole-positive Proteus [4]; contact time 60 min
  Bactericide action (growth / no growth): -
Indole-positive Proteus [4]; contact time 120 min
  Bactericide action (growth / no growth): -
E. coli
  contact time for total bactericide activity: ≤ 3 min
E. coli; contact time 3 min
  Bactericide action (growth / no growth): -
E. coli; contact time 5 min
  Bactericide action (growth / no growth): -
E. coli; contact time 10 min
  Bactericide action (growth / no growth): -
E. coli; contact time 30 min
  Bactericide action (growth / no growth): -
E. coli; contact time 60 min
  Bactericide action (growth / no growth): -
E. coli; contact time 120 min
  Bactericide action (growth / no growth): -
Serratia marcescens [5]; contact time 3 min
  Bactericide action (growth / no growth): -
Serratia marcescens [5]; contact time 5 min
  Bactericide action (growth / no growth): -
Serratia marcescens [5]; contact time 10 min
  Bactericide action (growth / no growth): -
Serratia marcescens [5]; contact time 30 min
  Bactericide action (growth / no growth): -
Serratia marcescens [5]; contact time 60 min
  Bactericide action (growth / no growth): -
Serratia marcescens [5]; contact time 120 min
  Bactericide action (growth / no growth): -
[6]
  LD50: 85 mg/kg
E.coli; strain 2094
  MIC: 250 µg/mL (≈ 1620 µM)
E.coli; strain 2096
  MIC: 250 µg/mL (≈ 1620 µM)
E.coli; strain 2117
  MIC: 250 µg/mL (≈ 1620 µM)
E.coli; strain 2456
  MIC: 500 µg/mL (≈ 3230 µM)
E.coli; strain 2568
  MIC: 500 µg/mL (≈ 3230 µM)
Indole-positive Proteus [7]; strain 2075
  MIC: 250 µg/mL (≈ 1620 µM)
Indole-positive Proteus [7]; strain 2083
  MIC: 125 µg/mL (≈ 809 µM)
Indole-positive Proteus [7]; strain 2105
  MIC: 500 µg/mL (≈ 3230 µM)
Indole-positive Proteus [7]; strain 2410
  MIC: 250 µg/mL (≈ 1620 µM)
Indole-positive Proteus [7]; strain 2447
  MIC: 500 µg/mL (≈ 3230 µM)
Indole-positive Proteus [7]; strain 2674
  MIC: 500 µg/mL (≈ 3230 µM)
Bacillaceae
  MIC: 15.6 µg/mL (≈ 101 µM)
Staph. aureus [8]
  MIC: 250 µg/mL (≈ 1620 µM)
Serratia marcescens [9]
  MIC: 31.2 µg/mL (≈ 202 µM)
Enterobacter
  MIC: 250 µg/mL (≈ 1620 µM)
Salmonella sp. [10]
  MIC: 250 µg/mL (≈ 1620 µM)
Pseudomonas aeruginosa [11]; strain 2084
  MIC: 250 µg/mL (≈ 1620 µM)
Pseudomonas aeruginosa [11]; strain 2458
  MIC: 500 µg/mL (≈ 3230 µM)
Pseudomonas aeruginosa [11]; strain 2488
  MIC: 250 µg/mL (≈ 1620 µM)
Pseudomonas aeruginosa [11]; strain 2508
  MIC: 500 µg/mL (≈ 3230 µM)
Pseudomonas aeruginosa [11]; strain 2509
  MIC: 250 µg/mL (≈ 1620 µM)
Pseudomonas aeruginosa [11]; strain 2670
  MIC: 500 µg/mL (≈ 3230 µM)
